Assay results: article PMC11345841, “Exploring 2-Sulfonylpyrimidine Warheads as Acrylamide Surrogates for Targeted Covalent Inhibition: A BTK Story” (Journal of Medicinal Chemistry, 2024)
Where two headings read alike, the source gives them in different places.

Assays:
[1] = molecular target: T1, ABL1(M351T)-phosphorylated (Homo sapiens, UniProt P00519, M351T); test: KINOMEscan ScanTK; type: binding
T1 construct: purchased Eurofins DiscoverX KINOMEscan (scanTK)

[2] = molecular target: T2, ABL1(Q252H)-phosphorylated (Homo sapiens, UniProt P00519, Q252H); test: KINOMEscan ScanTK; type: binding
T2 construct: purchased Eurofins DiscoverX KINOMEscan (scanTK)

[3] = molecular target: T3, BLK (Homo sapiens, UniProt P51451); test: KINOMEscan ScanTK; type: binding; settings: BLK
T3 construct: purchased Eurofins DiscoverX KINOMEscan (scanTK)
T3 sequence (P51451 whole entry): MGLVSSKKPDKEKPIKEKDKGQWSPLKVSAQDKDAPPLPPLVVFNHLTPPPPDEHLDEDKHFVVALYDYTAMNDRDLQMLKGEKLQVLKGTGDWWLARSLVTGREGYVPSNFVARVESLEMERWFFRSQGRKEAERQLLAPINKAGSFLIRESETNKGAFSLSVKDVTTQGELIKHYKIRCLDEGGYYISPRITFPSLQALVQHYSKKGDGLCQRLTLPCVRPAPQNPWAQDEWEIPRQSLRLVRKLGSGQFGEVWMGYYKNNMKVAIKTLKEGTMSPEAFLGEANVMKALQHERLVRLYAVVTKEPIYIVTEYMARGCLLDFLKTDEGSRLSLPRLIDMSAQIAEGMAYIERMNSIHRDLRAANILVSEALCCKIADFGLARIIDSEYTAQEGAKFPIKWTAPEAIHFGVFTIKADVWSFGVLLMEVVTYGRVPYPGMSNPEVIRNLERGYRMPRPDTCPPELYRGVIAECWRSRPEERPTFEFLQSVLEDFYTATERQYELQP

[4] = molecular target: T4, EGFR(L861Q) (Homo sapiens, UniProt P00533, L861Q); test: KINOMEscan ScanTK; type: binding
T4 construct: purchased Eurofins DiscoverX KINOMEscan (scanTK)
T4 sequence (P00533 25-1210 L861Q): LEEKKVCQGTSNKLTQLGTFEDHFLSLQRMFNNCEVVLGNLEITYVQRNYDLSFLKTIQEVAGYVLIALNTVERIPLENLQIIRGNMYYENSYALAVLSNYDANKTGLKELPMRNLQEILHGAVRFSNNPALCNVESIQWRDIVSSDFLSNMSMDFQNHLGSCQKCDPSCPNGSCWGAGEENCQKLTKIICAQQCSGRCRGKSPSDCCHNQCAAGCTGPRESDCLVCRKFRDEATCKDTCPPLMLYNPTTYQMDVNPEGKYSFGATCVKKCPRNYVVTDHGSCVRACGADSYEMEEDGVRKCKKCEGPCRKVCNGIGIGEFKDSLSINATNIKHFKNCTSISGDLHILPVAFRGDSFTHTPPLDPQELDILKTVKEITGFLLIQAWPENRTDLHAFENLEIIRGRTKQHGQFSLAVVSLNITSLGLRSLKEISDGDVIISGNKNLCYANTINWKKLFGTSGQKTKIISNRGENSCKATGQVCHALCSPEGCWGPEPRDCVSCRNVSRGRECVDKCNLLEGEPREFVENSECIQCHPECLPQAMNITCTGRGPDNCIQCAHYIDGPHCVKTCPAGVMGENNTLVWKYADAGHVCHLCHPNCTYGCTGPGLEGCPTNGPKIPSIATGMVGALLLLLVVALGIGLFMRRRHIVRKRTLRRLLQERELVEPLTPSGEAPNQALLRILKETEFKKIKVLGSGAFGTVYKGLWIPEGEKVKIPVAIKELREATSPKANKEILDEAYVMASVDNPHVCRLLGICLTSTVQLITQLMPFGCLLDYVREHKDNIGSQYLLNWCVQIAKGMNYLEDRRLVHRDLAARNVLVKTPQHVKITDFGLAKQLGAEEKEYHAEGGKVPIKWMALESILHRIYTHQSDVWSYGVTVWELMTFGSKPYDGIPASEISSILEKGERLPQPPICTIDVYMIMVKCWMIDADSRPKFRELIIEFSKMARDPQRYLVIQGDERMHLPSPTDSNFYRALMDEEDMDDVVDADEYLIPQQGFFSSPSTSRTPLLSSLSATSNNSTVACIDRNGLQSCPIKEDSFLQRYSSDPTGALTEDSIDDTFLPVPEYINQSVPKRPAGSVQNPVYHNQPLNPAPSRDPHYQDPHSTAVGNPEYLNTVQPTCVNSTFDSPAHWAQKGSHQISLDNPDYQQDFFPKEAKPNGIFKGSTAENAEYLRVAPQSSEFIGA

[5] = molecular target: T5, FLT1 (Homo sapiens, UniProt P17948); test: KINOMEscan ScanTK; type: binding
T5 construct: purchased Eurofins DiscoverX KINOMEscan (scanTK)
T5 sequence (P17948 27-1338): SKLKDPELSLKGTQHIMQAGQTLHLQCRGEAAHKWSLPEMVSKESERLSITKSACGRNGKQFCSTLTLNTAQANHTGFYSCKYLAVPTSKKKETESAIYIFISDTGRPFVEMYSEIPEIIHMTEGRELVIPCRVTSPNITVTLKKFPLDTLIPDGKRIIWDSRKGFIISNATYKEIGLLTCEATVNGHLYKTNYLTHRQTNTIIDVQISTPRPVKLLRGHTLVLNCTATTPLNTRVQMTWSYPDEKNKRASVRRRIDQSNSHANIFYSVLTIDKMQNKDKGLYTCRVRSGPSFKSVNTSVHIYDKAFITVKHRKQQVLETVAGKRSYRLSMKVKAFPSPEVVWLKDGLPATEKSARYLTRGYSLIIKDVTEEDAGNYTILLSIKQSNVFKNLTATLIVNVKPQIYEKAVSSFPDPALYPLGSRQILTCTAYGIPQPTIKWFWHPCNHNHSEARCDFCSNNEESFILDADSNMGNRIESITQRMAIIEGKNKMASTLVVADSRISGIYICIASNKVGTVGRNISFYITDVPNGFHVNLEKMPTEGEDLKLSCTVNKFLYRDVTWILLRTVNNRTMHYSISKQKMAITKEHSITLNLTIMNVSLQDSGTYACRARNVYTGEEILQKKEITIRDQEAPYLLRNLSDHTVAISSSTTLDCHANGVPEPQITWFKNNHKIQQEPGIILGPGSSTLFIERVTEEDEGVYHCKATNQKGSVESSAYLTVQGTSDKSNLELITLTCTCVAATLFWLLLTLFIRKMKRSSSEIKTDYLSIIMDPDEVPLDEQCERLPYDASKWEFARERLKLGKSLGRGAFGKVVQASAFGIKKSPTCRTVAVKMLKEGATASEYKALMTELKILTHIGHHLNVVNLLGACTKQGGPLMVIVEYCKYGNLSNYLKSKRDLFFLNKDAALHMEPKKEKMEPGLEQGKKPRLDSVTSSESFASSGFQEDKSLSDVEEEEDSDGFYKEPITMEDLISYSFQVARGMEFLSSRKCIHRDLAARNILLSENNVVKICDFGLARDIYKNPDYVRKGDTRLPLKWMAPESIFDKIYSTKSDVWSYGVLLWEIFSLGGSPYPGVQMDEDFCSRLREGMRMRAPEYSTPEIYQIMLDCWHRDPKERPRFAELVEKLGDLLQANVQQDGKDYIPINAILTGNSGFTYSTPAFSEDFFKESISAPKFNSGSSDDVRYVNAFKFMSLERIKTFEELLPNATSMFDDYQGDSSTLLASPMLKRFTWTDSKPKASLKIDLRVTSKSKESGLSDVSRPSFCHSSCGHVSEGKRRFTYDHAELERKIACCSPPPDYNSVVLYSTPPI

[6] = molecular target: T6, FLT3 (Homo sapiens, UniProt P36888); test: KINOMEscan ScanTK; type: binding
T6 construct: purchased Eurofins DiscoverX KINOMEscan (scanTK)
T6 sequence (P36888 27-993): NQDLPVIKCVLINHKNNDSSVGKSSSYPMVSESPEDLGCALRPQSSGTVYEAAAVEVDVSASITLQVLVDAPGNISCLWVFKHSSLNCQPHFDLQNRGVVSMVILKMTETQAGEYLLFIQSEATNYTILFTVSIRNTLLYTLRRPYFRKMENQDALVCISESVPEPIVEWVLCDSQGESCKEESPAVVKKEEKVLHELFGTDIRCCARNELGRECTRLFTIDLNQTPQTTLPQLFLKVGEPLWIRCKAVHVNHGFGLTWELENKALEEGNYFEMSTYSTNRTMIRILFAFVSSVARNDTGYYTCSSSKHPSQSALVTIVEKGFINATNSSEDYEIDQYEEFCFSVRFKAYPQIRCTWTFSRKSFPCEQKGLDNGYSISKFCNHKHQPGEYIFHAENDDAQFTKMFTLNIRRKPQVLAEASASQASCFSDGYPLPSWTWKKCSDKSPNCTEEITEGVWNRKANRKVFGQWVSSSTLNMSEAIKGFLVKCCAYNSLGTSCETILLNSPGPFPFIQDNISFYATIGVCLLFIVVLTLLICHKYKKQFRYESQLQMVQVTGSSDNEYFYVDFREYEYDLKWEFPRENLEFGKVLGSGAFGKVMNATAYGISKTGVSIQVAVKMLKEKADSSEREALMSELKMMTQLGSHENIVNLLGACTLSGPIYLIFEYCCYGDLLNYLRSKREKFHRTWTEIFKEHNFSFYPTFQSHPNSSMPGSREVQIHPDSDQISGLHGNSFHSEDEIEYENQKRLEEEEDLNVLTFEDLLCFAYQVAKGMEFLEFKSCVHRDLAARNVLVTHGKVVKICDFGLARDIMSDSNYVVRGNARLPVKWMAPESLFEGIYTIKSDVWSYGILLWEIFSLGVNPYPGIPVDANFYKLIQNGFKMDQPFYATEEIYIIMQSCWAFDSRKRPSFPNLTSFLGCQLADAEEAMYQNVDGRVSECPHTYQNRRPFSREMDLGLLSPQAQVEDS

[7] = molecular target: T7, MERTK (Homo sapiens, UniProt Q12866); test: KINOMEscan ScanTK; type: binding
T7 construct: purchased Eurofins DiscoverX KINOMEscan (scanTK)
T7 sequence (Q12866 21-999): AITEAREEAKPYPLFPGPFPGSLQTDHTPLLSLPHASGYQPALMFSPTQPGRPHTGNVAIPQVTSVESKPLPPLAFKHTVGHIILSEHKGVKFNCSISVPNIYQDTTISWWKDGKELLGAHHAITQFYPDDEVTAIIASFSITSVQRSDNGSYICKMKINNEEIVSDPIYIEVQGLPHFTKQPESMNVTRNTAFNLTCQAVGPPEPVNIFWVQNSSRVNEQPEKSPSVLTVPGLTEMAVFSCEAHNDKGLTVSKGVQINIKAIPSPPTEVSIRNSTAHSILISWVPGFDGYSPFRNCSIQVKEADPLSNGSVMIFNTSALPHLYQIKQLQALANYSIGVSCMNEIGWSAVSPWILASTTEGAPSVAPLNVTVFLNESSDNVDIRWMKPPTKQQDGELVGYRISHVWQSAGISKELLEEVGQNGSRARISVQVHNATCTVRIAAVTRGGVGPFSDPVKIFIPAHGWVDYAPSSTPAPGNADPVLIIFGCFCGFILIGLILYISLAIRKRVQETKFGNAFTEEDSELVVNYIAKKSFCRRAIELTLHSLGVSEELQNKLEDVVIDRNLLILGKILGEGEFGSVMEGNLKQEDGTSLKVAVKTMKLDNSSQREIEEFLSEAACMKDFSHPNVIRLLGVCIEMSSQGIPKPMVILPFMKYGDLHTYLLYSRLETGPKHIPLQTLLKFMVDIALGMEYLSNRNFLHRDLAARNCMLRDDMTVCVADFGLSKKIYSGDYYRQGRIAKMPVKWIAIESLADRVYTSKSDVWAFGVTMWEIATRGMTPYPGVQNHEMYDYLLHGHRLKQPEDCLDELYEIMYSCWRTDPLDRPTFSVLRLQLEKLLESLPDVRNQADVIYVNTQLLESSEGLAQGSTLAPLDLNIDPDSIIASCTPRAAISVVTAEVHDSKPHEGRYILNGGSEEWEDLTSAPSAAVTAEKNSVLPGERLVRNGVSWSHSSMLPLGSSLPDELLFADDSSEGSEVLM

[8] = molecular target: T8, MET(M1250T) (Homo sapiens, UniProt P08581, M1250T); test: KINOMEscan ScanTK; type: binding
T8 construct: purchased Eurofins DiscoverX KINOMEscan (scanTK)

[9] = molecular target: T9, SRMS (Homo sapiens, UniProt Q9H3Y6); test: KINOMEscan ScanTK; type: binding; settings: SRMS
T9 construct: purchased Eurofins DiscoverX KINOMEscan (scanTK)
T9 sequence (Q9H3Y6 whole entry): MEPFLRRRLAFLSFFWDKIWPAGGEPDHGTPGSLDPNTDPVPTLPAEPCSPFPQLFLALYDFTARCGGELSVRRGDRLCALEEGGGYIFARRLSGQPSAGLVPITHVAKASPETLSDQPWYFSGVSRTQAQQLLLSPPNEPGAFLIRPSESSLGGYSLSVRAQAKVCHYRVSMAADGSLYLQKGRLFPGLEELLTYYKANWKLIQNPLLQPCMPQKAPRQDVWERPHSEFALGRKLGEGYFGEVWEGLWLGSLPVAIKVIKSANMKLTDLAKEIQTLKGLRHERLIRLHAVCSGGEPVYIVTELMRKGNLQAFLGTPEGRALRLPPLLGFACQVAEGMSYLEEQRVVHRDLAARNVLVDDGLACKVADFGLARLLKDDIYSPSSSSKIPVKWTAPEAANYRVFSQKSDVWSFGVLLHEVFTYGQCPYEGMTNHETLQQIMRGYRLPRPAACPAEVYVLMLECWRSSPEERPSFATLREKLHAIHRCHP

[10] = molecular target: T10, TRKA (Homo sapiens, UniProt P04629); test: KINOMEscan ScanTK; type: binding; settings: TRKA
T10 construct: purchased Eurofins DiscoverX KINOMEscan (scanTK)
T10 sequence (P04629 33-796): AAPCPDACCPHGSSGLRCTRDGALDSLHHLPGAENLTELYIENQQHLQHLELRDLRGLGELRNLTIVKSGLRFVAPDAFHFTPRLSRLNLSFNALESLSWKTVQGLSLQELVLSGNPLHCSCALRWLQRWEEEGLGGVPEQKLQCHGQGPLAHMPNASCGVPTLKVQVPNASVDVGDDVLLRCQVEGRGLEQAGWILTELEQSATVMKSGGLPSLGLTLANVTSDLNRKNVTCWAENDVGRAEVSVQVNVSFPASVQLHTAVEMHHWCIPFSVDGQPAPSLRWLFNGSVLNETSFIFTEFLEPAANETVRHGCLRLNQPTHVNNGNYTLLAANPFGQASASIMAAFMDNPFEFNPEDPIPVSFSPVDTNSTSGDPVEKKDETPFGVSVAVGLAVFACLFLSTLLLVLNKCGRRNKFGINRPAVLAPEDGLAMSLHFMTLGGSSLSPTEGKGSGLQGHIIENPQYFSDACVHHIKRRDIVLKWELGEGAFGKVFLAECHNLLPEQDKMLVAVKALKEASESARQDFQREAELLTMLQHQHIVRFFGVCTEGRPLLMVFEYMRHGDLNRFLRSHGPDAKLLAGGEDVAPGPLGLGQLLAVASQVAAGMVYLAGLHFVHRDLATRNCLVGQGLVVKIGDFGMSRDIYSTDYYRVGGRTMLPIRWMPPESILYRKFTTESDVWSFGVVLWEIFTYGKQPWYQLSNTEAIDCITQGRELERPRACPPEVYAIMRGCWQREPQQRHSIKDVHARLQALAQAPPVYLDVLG

[11] = tested on: BTK Y223 phosphorylation; test: Immunoblotting, anti-IgM-induced signaling in OCI-LY7 cells; settings: 500 nM, 1 h
Method: We also investigated the effects of the compounds (at 500 nM) on sIgM signaling by analyzing the phosphorylation status of key signaling molecules activated downstream of the BCR.
Secondary antibodies were horseradish peroxidase-conjugated antibodies (GE Healthcare). Images were captured using the Amersham ImageQuant 800 System and quantified using ImageJ (http://imagej.nih.gov/ij/). Expression of phosphorylated proteins was normalized to the equivalent total protein with values for DMSO/anti-IgM set to 100%.

[12] = @1000nM, read-out: % difference (compound - Ib %Control)

COC(=O)c1cnc(S(C)(=O)=O)nc1N1CCCC(n2nc(-c3ccc(Oc4ccccc4)cc3)c3c(N)ncnc32)C1 (stereo not shown) [Compound 8b, Methyl 4-(3-(4-Amino-3-(4-phenoxyphenyl)-1H-pyrazolo[3,4-d]pyrimidin-1-yl)piperidin-1-yl)-2-(methylsulfonyl)pyrimidine-5-carboxylate]
difference in %Control from compound Ib at 1 µM ([1]; @1000nM): 1% | remaining binding at 1 µM ([1]; @1000nM, read-out: %Control): 66% | remaining binding at 1 µM ([1]; read-out: %Control @1000nM): 66% | difference in %Control versus reference Ib at 1 µM [2, 12]: -2% | remaining binding at 1 µM ([2]; @1000nM, read-out: %Control): 92% | remaining binding at 1 µM ([2]; read-out: %Control @1000nM): 92% | difference in %Control vs reference Ib at 1 µM [3, 12]: 0.35% | remaining binding at 1 µM ([3]; @1000nM, read-out: %Control): 0.4% | remaining binding at 1 µM ([3]; read-out: %Control @1000nM): 0.4% | difference in % of control versus compound Ib at 1 µM ([4]; @1000nM): 56.2% | remaining binding at 1 µM ([4]; @1000nM, read-out: %Control): 57% | remaining binding at 1 µM ([4]; read-out: %Control @1000nM): 57% | difference in %Control from compound Ib at 1 µM ([5]; @1000nM): 26% | remaining binding at 1 µM ([5]; @1000nM, read-out: %Control): 98% | remaining binding at 1 µM ([5]; read-out: %Control @1000nM): 98% | difference in %Control from compound Ib at 1 µM ([6]; @1000nM): 47% | remaining binding at 1 µM ([6]; @1000nM, read-out: %Control): 80% | remaining binding at 1 µM ([6]; read-out: %Control @1000nM): 80% | remaining binding at 1 µM ([7]; @1000nM, read-out: %Control): 67% | remaining binding at 1 µM ([7]; read-out: %Control @1000nM): 67% | remaining binding at 1 µM ([8]; @1000nM, read-out: %Control): 96% | remaining binding at 1 µM ([8]; read-out: %Control @1000nM): 96% | remaining binding at 1 µM ([9]; @1000nM, read-out: %Control): 27% | remaining binding at 1 µM ([9]; read-out: %Control @1000nM): 27% | difference in % of control versus compound Ib at 1 µM ([10]; @1000nM): 4% | remaining binding at 1 µM ([10]; @1000nM, read-out: %Control): 89% | remaining binding at 1 µM ([10]; read-out: %Control @1000nM): 89% | anti-IgM-induced BTK Y223 phosphorylation [11]: selectively reduced BTK Y^223 phosphorylation
